Measured values published in patent publication US7211572B2 (Japan Tobacco Inc., priority 2003, dated 2007).
Structures can show the parent of a compound that is named as a salt.

target: T1, HIV integrase (Human immunodeficiency virus type 1 group M subtype B, UniProt P12497, F1332H); assay: Determination of enzyme (HIV integrase) inhibitory activity; format: biochemical; details: recombinant HIV integrase (F185H), strand transfer ELISA, absorbance at 450 nm
T1 construct: HIV integrase full length gene; made in house; host or cells: Escherichia coli BL21(DE3), plasmid pET21a-INH
Outline: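 Full-length integrase with F185H, expressed in E. coli and purified, was reacted for 60 min at 37 °C with compound and biotinylated donor DNA bound to streptavidin plates. Target DNA was added for 10 min, then anti-digoxigenin-peroxidase detection at A450; IC50 from % inhibition versus enzyme-free blank.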

`CNC(=O)c1cn2ccn(Cc3ccc(F)c(Cl)c3)c(=O)c2c(O)c1=O` [Example 207, N-methyl-2-(3-chloro-4-fluorobenzyl)-9-hydroxy-1,8-dioxo-1,8-dihydro-2H-pyrido[1,2-a]pyrazine-7-carboxamide] and `CN(C)C(=O)c1cn2ccn(Cc3ccc(F)c(Cl)c3)c(=O)c2c(O)c1=O` [Example 208, N,N-dimethyl-2-(3-chloro-4-fluorobenzyl)-9-hydroxy-1,8-dioxo-1,8-dihydro-2H-pyrido[1,2-a]pyrazine-7-carboxamide] cannot be ordered by IC50: < 0.01 µM for the first, < 0.01 µM for the second.

Compared with `CS(=O)(=O)CCNC(=O)c1cn2ccn(Cc3cccc(Cl)c3)c(=O)c2c(O)c1=O` [Example 209, N-(2-methanesulfonylethyl)-2-(3-chlorobenzyl)-9-hydroxy-1,8-dioxo-1,8-dihydro-2H-pyrido[1,2-a]pyrazine-7-carboxamide], `O=C(NCCF)c1cn2ccn(Cc3cccc(Cl)c3)c(=O)c2c(O)c1=O` [Example 233, N-(2-fluoroethyl)-2-(3-chlorobenzyl)-9-hydroxy-1,8-dioxo-1,8-dihydro-2H-pyrido[1,2-a]pyrazine-7-carboxamide] is lower in IC50: 0.01 to 0.1 µM for the first, < 0.01 µM for the second.

Compared with `O=C(NCCN1CCCC1=O)c1cn2ccn(Cc3cccc(Cl)c3)c(=O)c2c(O)c1=O` [Example 210, N-[2-(2-oxopyrrolidin-1-yl)ethyl)-2-(3-chlorobenzyl)-9-hydroxy-1,8-dioxo-1,8-dihydro-2H-pyrido[1,2-a]pyrazine-7-carboxamide], `CC(C)(CO)C(=O)c1cn2ccn(Cc3cccc(Cl)c3)c(=O)c2c(O)c1=O` [Example 230, 2-(3-chlorobenzyl)-9-hydroxy-7-(3-hydroxy-2,2-dimethylpropionyl)-2H-pyrido[1,2-a]pyrazine-1,8-dione hydrochloride] is lower in IC50: 0.01 to 0.1 µM for the first, < 0.01 µM for the second. The second is the more potent here.

First: CN(c1cn2ccn(Cc3cccc(Cl)c3)c(=O)c2c(O)c1=O)S(C)(=O)=O [Example 211, N-[2-(3-chlorobenzyl)-9-hydroxy-1,8-dioxo-1,8-dihydro-2H-pyrido[1,2-a]pyrazin-7-yl]-N-methylmethanesulfonamide]
Second: O=c1c(CO)cn2ccn(Cc3cccc(Cl)c3)c(=O)c2c1O [Example 216, 2-(3-chlorobenzyl)-9-hydroxy-7-hydroxymethyl-2H-pyrido[1,2-a]pyrazine-1,8-dione hydrochloride]
The IC50 of the first is lower: < 0.01 µM for the first, 0.01 to 0.1 µM for the second.

`COc1cc(Cl)cc(Cn2ccn3ccc(=O)c(O)c3c2=O)c1` [Example 212, 2-(3-chloro-5-methoxybenzyl)-9-hydroxy-2H-pyrido[1,2-a]pyrazine-1,8-dione hydrochloride] and `O=c1ccn2ccn(Cc3ccc(Cl)cc3O)c(=O)c2c1O` [Example 224, 2-(4-chloro-2-hydroxybenzyl)-9-hydroxy-2H-pyrido[1,2-a]pyrazine-1,8-dione hydrochloride] fall in the same range of IC50: 0.01 to 0.1 µM for the first, 0.01 to 0.1 µM for the second.

First: O=C(NCc1ccncc1)c1cn2ccn(Cc3cccc(Cl)c3)c(=O)c2c(O)c1=O [Example 213, N-(pyridin-4-ylmethyl)-2-(3-chlorobenzyl)-9-hydroxy-1,8-dioxo-1,8-dihydro-2H-pyrido[1,2-a]pyrazine-7-carboxamide]
Second: O=C(NCc1ccc(F)cc1)c1cn2ccn(Cc3cccc(Cl)c3)c(=O)c2c(O)c1=O [Example 214, N-(4-fluorobenzyl)-2-(3-chlorobenzyl)-9-hydroxy-1,8-dioxo-1,8-dihydro-2H-pyrido[1,2-a]pyrazine-7-carboxamide]
The IC50 of the first is higher: 0.01 to 0.1 µM for the first, < 0.01 µM for the second.

`O=C1c2c(O)c(=O)c(-c3nccs3)cn2CCN1Cc1cccc(Cl)c1` [Example 215, 2-(3-chlorobenzyl)-9-hydroxy-7-(thiazol-2-yl)-3,4-dihydro-2H-pyrido[1,2-a]pyrazine-1,8-dione] and `O=C1c2c(O)c(=O)c(-c3nccs3)cn2CCN1Cc1ccc(F)c(Cl)c1` [Example 225, 2-(3-chloro-4-fluorobenzyl)-9-hydroxy-7-(thiazol-2-yl)-3,4-dihydro-2H-pyrido[1,2-a]pyrazine-1,8-dione] cannot be ordered by IC50: < 0.01 µM for the first, < 0.01 µM for the second.

`CC(C)(C)C(=O)c1cn2ccn(Cc3ccc(F)c(Cl)c3)c(=O)c2c(O)c1=O` [Example 217, 2-(3-chloro-4-fluorobenzyl)-7-(2,2-dimethylpropionyl)-9-hydroxy-2H-pyrido[1,2-a]pyrazine-1,8-dione hydrochloride] and `CC(C)(C)C(=O)c1cn2c(CO)cn(Cc3ccc(F)c(Cl)c3)c(=O)c2c(O)c1=O` [Example 241, 2-(3-chloro-4-fluorobenzyl)-7-(2,2-dimethylpropionyl)-9-hydroxy-4-hydroxymethyl-2H-pyrido[1,2-a]pyrazine-1,8-dione hydrochloride] cannot be ordered by IC50: < 0.01 µM for the first, < 0.01 µM for the second.

`O=c1c(-c2cncs2)cn2ccn(Cc3cccc(Cl)c3)c(=O)c2c1O` [Example 218, 2-(3-chlorobenzyl)-9-hydroxy-7-(thiazol-5-yl)-2H-pyrido[1,2-a]pyrazine-1,8-dione hydrochloride] and `O=c1c(-c2cnccn2)cn2ccn(Cc3cccc(Cl)c3)c(=O)c2c1O` [Example 231, 2-(3-chlorobenzyl)-9-hydroxy-7-(pyrazin-2-yl)-2H-pyrido [1,2-a]pyrazine-1,8-dione hydrochloride] cannot be ordered by IC50: < 0.01 µM for the first, < 0.01 µM for the second.

`CNC(=O)c1cn2c(c(O)c1=O)C(=O)N(Cc1cccc(Cl)c1)CC2` [Example 219, 2-(3-chlorobenzyl)-9-hydroxy-1,8-dioxo-1,3,4,8-tetrahydro-2H-pyrido[1,2-a]pyrazine-7-carboxylic acid methylamide] and `CN(C)C(=O)c1cn2c(c(O)c1=O)C(=O)N(Cc1cccc(Cl)c1)CC2` [Example 220, N,N-dimethyl-2-(3-chlorobenzyl)-9-hydroxy-1,8-dioxo-1,3,4,8-tetrahydro-2H-pyrido[1,2-a]pyrazine-7-carboxamide] fall in the same range of IC50: 0.01 to 0.1 µM for the first, 0.01 to 0.1 µM for the second.

`CC(C)(C)C(=O)c1cn2c(c(O)c1=O)C(=O)N(Cc1ccc(F)c(Cl)c1)CC2` [Example 221, 2-(3-chloro-4-fluorobenzyl)-7-(2,2-dimethylpropionyl)-9-hydroxy-3,4-dihydro-2H-pyrido[1,2-a]pyrazine-1,8-dione hydrochloride] and `CC(C)(C)C(=O)c1cn2c(c(O)c1=O)C(=O)N(Cc1ccc(Cl)c(Cl)c1)CC2` [Example 238, 2-(3,4-dichlorobenzyl)-7-(2,2-dimethylpropionyl)-9-hydroxy-3,4-dihydro-2H-pyrido[1,2-a]pyrazine-1,8-dione] cannot be ordered by IC50: < 0.01 µM for the first, < 0.01 µM for the second.

First: CNC(=O)c1cn2c(CO)cn(Cc3ccc(F)c(Cl)c3)c(=O)c2c(O)c1=O [Example 222, 2-(3-chloro-4-fluorobenzyl)-9-hydroxy-4-hydroxymethyl-1,8-dioxo-1,8-dihydro-2H-pyrido[1,2-a]pyrazine-7-carboxylic acid methylamide hydrochloride]
Second: CNC(=O)c1cn2c(c(O)c1=O)C(=O)N(Cc1ccc(F)c(Cl)c1)CC2 [Example 227, N-methyl-2-(3-chloro-4-fluorobenzyl)-9-hydroxy-1,8-dioxo-1,3,4,8-tetrahydro-2H-pyrido[1,2-a]pyrazine-7-carboxamide]
The IC50 of the first is lower: < 0.01 µM for the first, 0.01 to 0.1 µM for the second.

`CC(C)(C)C(=O)c1cn2c(c(O)c1=O)C(=O)N(Cc1cccc(Cl)c1)CC2` [Example 223, 2-(3-chlorobenzyl)-7-(2,2-dimethylpropionyl)-9-hydroxy-3,4-dihydro-2H-pyrido[1,2-a]pyrazine-1,8-dione hydrochloride] and `CN(C)C(=O)c1cn2c(c(O)c1=O)C(=O)N(Cc1ccc(F)c(Cl)c1)CC2` [Example 228, N,N-dimethyl-2-(3-chloro-4-fluorobenzyl)-9-hydroxy-1,8-dioxo-1,3,4,8-tetrahydro-2H-pyrido[1,2-a]pyrazine-7-carboxamide] fall in the same range of IC50: 0.01 to 0.1 µM for the first, 0.01 to 0.1 µM for the second.

First: CN(C(=O)Cn1ccn2ccc(=O)c(O)c2c1=O)c1ccccc1 [Example 226, 2-(9-hydroxy-1,8-dioxo-1,8-dihydro-pyrido[1,2-a]pyrazin-2-yl)-N-methyl-N-phenylacetamide hydrochloride]
Second: CN(Cc1ccccc1)C(=O)c1cn2ccn(Cc3cccc(Cl)c3)c(=O)c2c(O)c1=O [Example 234, N-benzyl-N-methyl-2-(3-chlorobenzyl)-9-hydroxy-1,8-dioxo-1,8-dihydro-2H-pyrido[1,2-a]pyrazine-7-carboxamide]
The IC50 of the first is higher: 0.1 to 1 µM for the first, < 0.01 µM for the second. The second is the more potent here.

`CC(=O)OCC(C)(C)C(=O)c1cn2ccn(Cc3cccc(Cl)c3)c(=O)c2c(O)c1=O` [Example 229, 3-[2-(3-chlorobenzyl)-9-hydroxy-1,8-dioxo-1,8-dihydro-2H-pyrido[1,2-a]pyrazin-7-yl]-2,2-dimethyl-3-oxopropyl acetate hydrochloride] and `CC(C)C(=O)Nc1cn2ccn(Cc3cccc(Cl)c3)c(=O)c2c(O)c1=O` [Example 239, N-[2-(3-chlorobenzyl)-9-hydroxy-1,8-dioxo-1,8-dihydro-2H-pyrido[1,2-a]pyrazin-7-yl]isobutyramide] cannot be ordered by IC50: < 0.01 µM for the first, < 0.01 µM for the second.

First: Cn1ncnc1-c1cn2ccn(Cc3cccc(Cl)c3)c(=O)c2c(O)c1=O [Example 232, 2-(3-chlorobenzyl)-9-hydroxy-7-(2-methyl-2H-1,2,4-triazol-3-yl)-2H-pyrido[1,2-a]pyrazine-1,8-dione hydrochloride]
Second: O=c1c(Sc2ccccc2)cn2ccn(Cc3cccc(Cl)c3)c(=O)c2c1O [Example 235, 2-(3-chlorobenzyl)-9-hydroxy-7-phenylsulfanyl-2H-pyrido [1,2-a]pyrazine-1,8-dione]
The IC50 of the first is lower: < 0.01 µM for the first, 0.01 to 0.1 µM for the second. The first is the more potent here.

`O=c1c([S+]([O-])c2ccccc2)cn2ccn(Cc3cccc(Cl)c3)c(=O)c2c1O` (centres unmarked) [Example 236, 7-benzenesulfinyl-2-(3-chlorobenzyl)-9-hydroxy-2H-pyrido[1,2-a]pyrazine-1,8-dione] and `O=c1c(S(=O)(=O)c2ccccc2)cn2ccn(Cc3cccc(Cl)c3)c(=O)c2c1O` [Example 237, 7-benzenesulfonyl-2-(3-chlorobenzyl)-9-hydroxy-2H-pyrido [1,2-a]pyrazine-1,8-dione] fall in the same range of IC50: 0.01 to 0.1 µM for the first, 0.01 to 0.1 µM for the second.

`CC(=O)Nc1cn2ccn(Cc3ccc(F)c(Cl)c3)c(=O)c2c(O)c1=O` [Example 240, N-[2-(3-chloro-4-fluorobenzyl)-9-hydroxy-1,8-dioxo-1,8-dihydro-2H-pyrido[1,2-a]pyrazin-7-yl]acetamide] was tested, and the IC50 was < 0.01 µM.
